Among the data in publication PMC7827406, “Structure–Activity Relationship (SAR) Study of Spautin-1 to Entail the Discovery of Novel NEK4 Inhibitors” (International Journal of Molecular Sciences, 2021) are remaining activity values, retold here.

What all share (assay): biochemical
Set-up in all cases: Eurofins KinaseProfiler full panel at Km ATP, residual kinase activity (%) relative to DMSO

Test [1] addresses T1, SGK(h) (Homo sapiens, UniProt O00141).
T1 construct: gene SGK1
T1 sequence (O00141 1-431): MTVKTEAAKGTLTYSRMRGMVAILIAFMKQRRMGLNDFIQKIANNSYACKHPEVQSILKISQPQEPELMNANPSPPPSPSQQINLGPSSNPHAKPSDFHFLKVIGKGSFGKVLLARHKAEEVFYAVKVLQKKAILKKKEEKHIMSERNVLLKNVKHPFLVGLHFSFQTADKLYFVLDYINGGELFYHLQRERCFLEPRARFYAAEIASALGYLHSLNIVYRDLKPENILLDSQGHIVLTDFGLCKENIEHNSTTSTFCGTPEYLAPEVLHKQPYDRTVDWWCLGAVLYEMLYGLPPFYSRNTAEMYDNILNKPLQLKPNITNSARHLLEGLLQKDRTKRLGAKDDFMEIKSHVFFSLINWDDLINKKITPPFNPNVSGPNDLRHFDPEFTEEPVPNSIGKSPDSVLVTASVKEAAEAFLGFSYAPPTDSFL
The gist of the method:
(§1)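 Two 10 µM single-concentration screens were run: a competition-binding screen, in which DNA-tagged kinase bound to immobilized ligands was quantified by qPCR, and a radiometric activity panel at Km ATP. Each is expressed as residual kinase activity (%).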

Test [2] concerns the target T2, TAO2(h) (Homo sapiens, UniProt Q9UL54).
T2 construct: gene TAOK2
T2 sequence (Q9UL54 1-1235): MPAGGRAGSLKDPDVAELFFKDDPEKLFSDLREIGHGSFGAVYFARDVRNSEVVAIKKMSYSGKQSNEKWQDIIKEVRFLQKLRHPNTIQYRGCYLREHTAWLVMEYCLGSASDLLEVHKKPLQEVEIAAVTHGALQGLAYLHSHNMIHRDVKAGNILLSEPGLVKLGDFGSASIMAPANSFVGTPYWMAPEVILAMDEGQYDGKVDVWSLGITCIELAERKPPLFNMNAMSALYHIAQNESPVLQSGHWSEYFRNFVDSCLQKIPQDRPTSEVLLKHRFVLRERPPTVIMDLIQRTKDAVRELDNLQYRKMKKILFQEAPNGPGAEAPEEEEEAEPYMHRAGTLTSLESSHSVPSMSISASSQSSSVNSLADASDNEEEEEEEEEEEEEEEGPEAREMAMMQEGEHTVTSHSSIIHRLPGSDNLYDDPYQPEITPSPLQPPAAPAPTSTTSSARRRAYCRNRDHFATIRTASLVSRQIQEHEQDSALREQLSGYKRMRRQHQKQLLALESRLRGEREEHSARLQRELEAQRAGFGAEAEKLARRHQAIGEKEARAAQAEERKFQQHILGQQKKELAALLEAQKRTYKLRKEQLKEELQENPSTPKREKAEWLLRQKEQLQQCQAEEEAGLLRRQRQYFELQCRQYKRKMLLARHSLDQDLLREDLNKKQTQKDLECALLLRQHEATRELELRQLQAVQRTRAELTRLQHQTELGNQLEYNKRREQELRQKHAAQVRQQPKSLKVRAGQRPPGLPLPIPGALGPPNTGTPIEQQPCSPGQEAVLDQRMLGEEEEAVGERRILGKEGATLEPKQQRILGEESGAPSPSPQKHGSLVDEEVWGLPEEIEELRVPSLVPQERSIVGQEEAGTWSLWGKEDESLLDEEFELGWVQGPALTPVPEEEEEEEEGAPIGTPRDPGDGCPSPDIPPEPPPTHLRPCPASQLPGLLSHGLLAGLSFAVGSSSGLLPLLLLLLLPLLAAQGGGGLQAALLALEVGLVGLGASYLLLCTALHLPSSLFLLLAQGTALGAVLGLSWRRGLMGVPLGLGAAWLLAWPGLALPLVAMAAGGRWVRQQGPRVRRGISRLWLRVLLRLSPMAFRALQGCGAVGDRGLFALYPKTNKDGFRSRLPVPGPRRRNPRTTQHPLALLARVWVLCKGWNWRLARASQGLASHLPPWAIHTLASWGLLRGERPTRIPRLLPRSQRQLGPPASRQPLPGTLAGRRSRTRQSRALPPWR
The gist of the method:
as §1

In test [3] the target is T3, TGFBR1(h) (Homo sapiens, UniProt P36897).
T3 sequence (P36897 1-503): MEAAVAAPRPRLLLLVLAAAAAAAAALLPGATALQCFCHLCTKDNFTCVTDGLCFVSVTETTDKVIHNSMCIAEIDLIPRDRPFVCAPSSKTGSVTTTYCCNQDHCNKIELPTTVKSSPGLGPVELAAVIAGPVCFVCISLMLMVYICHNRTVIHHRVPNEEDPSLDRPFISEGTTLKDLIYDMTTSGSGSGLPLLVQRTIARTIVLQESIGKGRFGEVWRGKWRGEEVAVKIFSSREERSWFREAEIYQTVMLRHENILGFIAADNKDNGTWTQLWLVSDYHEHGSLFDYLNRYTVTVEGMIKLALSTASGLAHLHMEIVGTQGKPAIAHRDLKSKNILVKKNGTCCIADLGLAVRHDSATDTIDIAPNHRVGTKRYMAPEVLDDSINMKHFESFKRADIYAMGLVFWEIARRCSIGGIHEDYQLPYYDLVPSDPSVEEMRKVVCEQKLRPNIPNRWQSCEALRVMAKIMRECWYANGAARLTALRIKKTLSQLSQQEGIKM
The gist of the method: as §1

[4] abbreviates: read-out: Residual activity (%) Spautin-1 5aa.
Setting [5] is: read-out: Residual activity (%) 5as.
Setting [6] is: read-out: Residual activity (%) 5at.
Setting [7] is: read-out: Residual activity (%) 5ay.

Read-outs that look alike come from different tables or passages of the source.

As for `Fc1ccc(CNc2ncnc3ccc(F)cc23)cc1` [5aa, 6-Fluoro-N-(4-fluorobenzyl)-4-Quinazolinamine], the remaining activity at 10 µM in test [1] (setting [4]) was 82%; in test [2] (setting [4]), 110%; in test [3] (setting [4]) it was 87%.
In the case of `Fc1ccc(CCNc2ncnc3ccc(F)cc23)cc1` [5as, 6-Fluoro-N-[2-(4-Fluorophenyl)Ethyl]-4-Quinazolinamine], the remaining activity at 10 µM was 86% in test [1] (setting [5]), 109% in test [2] (setting [5]) and 97% in test [3] (setting [5]).
Regarding `Fc1ccc2ncnc(NCCc3ccc(Cl)cc3)c2c1` [5at, N-[2-(4-Chlorophenyl)Ethyl]-6-Fluoro-4-Quinazolinamine], the remaining activity at 10 µM in test [1] (setting [6]) was 92%; in test [2] (setting [6]) it was 107%; in test [3] (setting [6]), 86%.
`COc1ccc2ncnc(Nc3cccc(F)c3)c2c1` [5ay, N-(3-Fluorophenyl)-6-Methoxy-4-Quinazolinamine]: the remaining activity at 10 µM in test [1] (setting [7]) worked out at 82%; in test [2] (setting [7]) it was 112%; in test [3] (setting [7]) it was 94%.
